The record followed here is ChEMBL document CHEMBL4325871 (Eur J Med Chem, 2019).

Molecules are shown by their SMILES.

Assay [1] concerns the target Serine/threonine-protein kinase WNK1 (Homo sapiens) (UniProt Q9H4A3). Description: Inhibition of human WNK1 assessed as residual activity at 1 uM using MBP as substrate by [gamma-33P]-ATP assay relative to control.
Assay [2] concerns the target Dual specificity protein kinase CLK4 (Homo sapiens) (UniProt Q9HAZ1). Description: Inhibition of human CLK4 assessed as residual activity at 1 uM using MBP as substrate by [gamma-33P]-ATP assay relative to control.
Assay [3] addresses Calcium/calmodulin-dependent protein kinase type 1B (Homo sapiens) (UniProt Q6P2M8). Description: Inhibition of human CAMK1B assessed as residual activity at 1 uM using KKALRRQETVDAL as substrate by [gamma-33P]-ATP assay relative to control.
The target of assay [4] is Tyrosine-protein kinase receptor UFO (Homo sapiens) (UniProt P30530). Briefly: Inhibition of human AXL assessed as residual activity at 1 uM using EAIYAAPFAKKK as substrate by [gamma-33P]-ATP assay relative to control.
Assay [5] concerns the target Mitogen-activated protein kinase kinase kinase 12 (Homo sapiens) (UniProt Q12852). Description: Inhibition of human DLK assessed as residual activity at 1 uM using MBP as substrate by [gamma-33P]-ATP assay relative to control.
Assay [6] addresses Ephrin type-B receptor 3 (Homo sapiens) (UniProt P54753). Description: Inhibition of human EPHB3 assessed as residual activity at 1 uM using poly[Glu:Tyr] (4:1) as substrate by [gamma-33P]-ATP assay relative to control.
Assay [7] addresses Aurora kinase C (Homo sapiens) (UniProt Q9UQB9). Briefly: Inhibition of human Aurora C assessed as residual activity at 1 uM using [H-LRRASLG] as substrate by [gamma-33P]-ATP assay relative to control.
Assay [8] concerns the target Hepatocyte growth factor receptor (Homo sapiens) (UniProt P08581). Description: Inhibition of human c-MET assessed as residual activity at 1 uM using KKKSPGEYVNIEFG as substrate by [gamma-33P]-ATP assay relative to control.
The target of assay [9] is T1, Serine/threonine-protein kinase A-Raf (Homo sapiens) (UniProt P10398).
T1 sequence (whole entry): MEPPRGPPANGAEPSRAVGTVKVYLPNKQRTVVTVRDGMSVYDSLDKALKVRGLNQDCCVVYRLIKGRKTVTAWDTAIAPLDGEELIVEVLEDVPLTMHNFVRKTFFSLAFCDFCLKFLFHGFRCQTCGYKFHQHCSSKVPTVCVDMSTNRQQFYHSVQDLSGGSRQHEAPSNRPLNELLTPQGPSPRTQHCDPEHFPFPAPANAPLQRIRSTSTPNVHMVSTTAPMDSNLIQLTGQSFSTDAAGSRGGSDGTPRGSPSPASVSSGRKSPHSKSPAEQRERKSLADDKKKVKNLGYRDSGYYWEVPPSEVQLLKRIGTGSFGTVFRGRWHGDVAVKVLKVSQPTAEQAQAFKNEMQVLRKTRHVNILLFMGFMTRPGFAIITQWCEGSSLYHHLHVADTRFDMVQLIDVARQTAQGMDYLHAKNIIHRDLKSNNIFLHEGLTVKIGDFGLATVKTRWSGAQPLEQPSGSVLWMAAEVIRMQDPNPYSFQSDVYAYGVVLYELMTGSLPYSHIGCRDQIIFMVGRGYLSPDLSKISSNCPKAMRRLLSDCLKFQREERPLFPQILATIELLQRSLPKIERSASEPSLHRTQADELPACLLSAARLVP
Description: Inhibition of human ARAF assessed as residual activity at 1 uM using MEK1 as substrate by [gamma-33P]-ATP assay relative to control.

The target in assay [10] is Vascular endothelial growth factor receptor 1 (Homo sapiens) (UniProt P17948). Briefly: Inhibition of human FLT1 assessed as residual activity at 1 uM using poly[Glu:Tyr] (4:1) as substrate by [gamma-33P]-ATP assay relative to control.
Assay [11] deals with Casein kinase II subunit alpha' (Homo sapiens) (UniProt P19784). Description: Inhibition of human CK2A2 assessed as residual activity at 1 uM using RRRDDDSDDD as substrate by [gamma-33P]-ATP assay relative to control.
Casein kinase II subunit alpha' (Homo sapiens), sequence (P19784 whole entry, looked up): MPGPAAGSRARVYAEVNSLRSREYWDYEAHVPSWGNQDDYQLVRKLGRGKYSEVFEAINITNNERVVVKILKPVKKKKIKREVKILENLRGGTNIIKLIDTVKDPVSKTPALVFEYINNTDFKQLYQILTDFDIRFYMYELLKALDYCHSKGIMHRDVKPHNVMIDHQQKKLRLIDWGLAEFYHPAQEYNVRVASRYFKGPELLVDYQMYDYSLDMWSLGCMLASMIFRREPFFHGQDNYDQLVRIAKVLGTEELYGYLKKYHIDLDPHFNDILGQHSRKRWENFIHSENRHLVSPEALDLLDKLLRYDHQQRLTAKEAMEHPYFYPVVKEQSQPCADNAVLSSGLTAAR
For assay [12], the target named is Serine/threonine-protein kinase 26 (Homo sapiens) (UniProt Q9P289). Briefly: Inhibition of human MST4 assessed as residual activity at 1 uM using MBP as substrate by [gamma-33P]-ATP assay relative to control.
For assay [13], the target named is Serine/threonine-protein kinase Nek9 (Homo sapiens) (UniProt Q8TD19). Description: Inhibition of human NEK9 assessed as residual activity at 1 uM using casein as substrate by [gamma-33P]-ATP assay relative to control.
Serine/threonine-protein kinase Nek9 (Homo sapiens), sequence (Q8TD19 whole entry): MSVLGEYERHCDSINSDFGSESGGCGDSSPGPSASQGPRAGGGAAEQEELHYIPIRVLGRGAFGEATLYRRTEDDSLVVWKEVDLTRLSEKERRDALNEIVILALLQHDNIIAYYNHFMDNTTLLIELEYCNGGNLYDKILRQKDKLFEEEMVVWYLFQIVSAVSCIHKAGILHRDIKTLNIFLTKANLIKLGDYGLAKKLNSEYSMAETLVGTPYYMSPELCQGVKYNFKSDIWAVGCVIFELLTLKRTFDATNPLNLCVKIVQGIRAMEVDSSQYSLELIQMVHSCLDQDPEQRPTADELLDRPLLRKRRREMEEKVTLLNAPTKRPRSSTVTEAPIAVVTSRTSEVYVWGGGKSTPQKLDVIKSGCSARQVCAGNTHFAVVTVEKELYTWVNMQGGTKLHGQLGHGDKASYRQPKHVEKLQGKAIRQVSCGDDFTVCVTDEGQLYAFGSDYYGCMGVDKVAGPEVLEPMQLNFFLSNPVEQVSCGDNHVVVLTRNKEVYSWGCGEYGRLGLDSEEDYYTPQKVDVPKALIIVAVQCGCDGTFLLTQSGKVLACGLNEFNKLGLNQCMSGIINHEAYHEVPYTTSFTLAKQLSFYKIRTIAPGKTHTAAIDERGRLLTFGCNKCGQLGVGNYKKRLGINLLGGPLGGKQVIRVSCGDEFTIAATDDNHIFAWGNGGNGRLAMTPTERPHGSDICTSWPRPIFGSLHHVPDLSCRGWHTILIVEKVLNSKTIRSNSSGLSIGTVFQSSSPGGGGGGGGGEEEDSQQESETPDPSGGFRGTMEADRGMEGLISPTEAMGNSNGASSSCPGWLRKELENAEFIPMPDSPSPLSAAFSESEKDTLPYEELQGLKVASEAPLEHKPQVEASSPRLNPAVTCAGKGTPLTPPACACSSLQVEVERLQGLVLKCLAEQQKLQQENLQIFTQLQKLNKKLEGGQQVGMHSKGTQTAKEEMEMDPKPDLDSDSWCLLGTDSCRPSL
Assay [14] deals with Mitogen-activated protein kinase kinase kinase 19 (Homo sapiens) (UniProt Q56UN5). Briefly: Inhibition of human YSK4 assessed as residual activity at 1 uM using MBP as substrate by [gamma-33P]-ATP assay relative to control.
Mitogen-activated protein kinase kinase kinase 19 (Homo sapiens), sequence (Q56UN5 whole entry): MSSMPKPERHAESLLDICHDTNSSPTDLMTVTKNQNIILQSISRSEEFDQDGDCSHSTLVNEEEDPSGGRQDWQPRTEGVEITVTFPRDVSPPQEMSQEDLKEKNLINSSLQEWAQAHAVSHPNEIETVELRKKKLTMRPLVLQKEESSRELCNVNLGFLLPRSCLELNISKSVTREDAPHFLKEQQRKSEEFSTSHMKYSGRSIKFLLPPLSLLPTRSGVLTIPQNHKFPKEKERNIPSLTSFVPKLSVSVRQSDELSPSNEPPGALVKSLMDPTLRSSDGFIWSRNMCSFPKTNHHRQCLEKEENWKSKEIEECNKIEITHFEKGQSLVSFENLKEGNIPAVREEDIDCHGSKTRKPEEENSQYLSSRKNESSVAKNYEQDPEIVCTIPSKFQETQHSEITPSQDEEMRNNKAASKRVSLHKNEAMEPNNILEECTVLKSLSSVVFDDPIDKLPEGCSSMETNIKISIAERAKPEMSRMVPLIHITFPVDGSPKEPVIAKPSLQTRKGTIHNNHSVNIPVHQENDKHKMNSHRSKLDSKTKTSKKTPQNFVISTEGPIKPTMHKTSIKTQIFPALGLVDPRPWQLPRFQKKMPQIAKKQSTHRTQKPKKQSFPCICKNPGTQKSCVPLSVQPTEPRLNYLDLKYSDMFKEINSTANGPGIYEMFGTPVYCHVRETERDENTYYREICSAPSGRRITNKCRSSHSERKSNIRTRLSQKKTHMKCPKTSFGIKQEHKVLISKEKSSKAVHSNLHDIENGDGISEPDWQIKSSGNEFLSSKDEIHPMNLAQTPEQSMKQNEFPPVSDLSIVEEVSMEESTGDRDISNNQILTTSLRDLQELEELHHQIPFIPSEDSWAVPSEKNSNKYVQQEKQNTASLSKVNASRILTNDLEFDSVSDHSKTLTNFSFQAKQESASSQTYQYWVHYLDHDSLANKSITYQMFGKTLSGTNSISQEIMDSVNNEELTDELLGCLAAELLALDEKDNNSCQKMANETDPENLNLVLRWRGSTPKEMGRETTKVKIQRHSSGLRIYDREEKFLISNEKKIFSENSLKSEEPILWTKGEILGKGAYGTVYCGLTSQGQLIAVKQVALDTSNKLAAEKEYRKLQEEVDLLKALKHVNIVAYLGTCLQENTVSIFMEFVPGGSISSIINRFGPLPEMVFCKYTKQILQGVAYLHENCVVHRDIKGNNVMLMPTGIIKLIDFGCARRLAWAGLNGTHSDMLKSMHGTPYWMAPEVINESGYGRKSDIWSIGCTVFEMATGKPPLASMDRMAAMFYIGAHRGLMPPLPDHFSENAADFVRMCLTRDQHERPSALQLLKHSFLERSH
Assay [15] addresses Serine/threonine-protein kinase STK11 (Homo sapiens) (UniProt Q15831). Description: Inhibition of human LKB1 assessed as residual activity at 1 uM using LSNLYHQGKFLQTFCGSPLYRRR as substrate by [gamma-33P]-ATP assay relative to control.
Assay [16] concerns the target Serine/threonine-protein kinase DCLK2 (Homo sapiens) (UniProt Q8N568). Description: Inhibition of human DCAMKL2 assessed as residual activity at 1 uM using KKLNRTLSFAEPG as substrate by [gamma-33P]-ATP assay relative to control.
For assay [17], the target named is CDC7/DBF4 (Cell division cycle 7-related protein kinase/Activator of S phase kinase) (Homo sapiens) (UniProt Q9UBU7+O00311). Description: Inhibition of human CDC7/DBF4 assessed as residual activity at 1 uM using KTFCGTPEYLAPEVRREPRILSEEEQEMFRDFDYIADWC as substrate by [gamma-33P]-ATP assay relative to control. Type of assay: protein-complex assay.
Assay [18] concerns the target Serine/threonine-protein kinase tousled-like 2 (Homo sapiens) (UniProt Q86UE8). Briefly: Inhibition of human TLK2 assessed as residual activity at 1 uM using casein as substrate by [gamma-33P]-ATP assay relative to control.
Assay [19] concerns the target cAMP-dependent protein kinase catalytic subunit PRKX (Homo sapiens) (UniProt P51817). Briefly: Inhibition of human PRKX assessed as residual activity at 1 uM using LRRASLG as substrate by [gamma-33P]-ATP assay relative to control.
Assay [20] deals with Proto-oncogene tyrosine-protein kinase ROS (Homo sapiens) (UniProt P08922). Briefly: Inhibition of human ROS assessed as residual activity at 1 uM using KKKSPGEYVNIEFG as substrate by [gamma-33P]-ATP assay relative to control.
The target of assay [21] is MAP/microtubule affinity-regulating kinase 4 (Homo sapiens) (UniProt Q96L34). Briefly: Inhibition of human MARK4 assessed as residual activity at 1 uM using KKKVSRSGLYRSPSMPENLNRPR as substrate by [gamma-33P]-ATP assay relative to control.

Hepatocyte growth factor receptor (Homo sapiens), sequence (P08581 whole entry): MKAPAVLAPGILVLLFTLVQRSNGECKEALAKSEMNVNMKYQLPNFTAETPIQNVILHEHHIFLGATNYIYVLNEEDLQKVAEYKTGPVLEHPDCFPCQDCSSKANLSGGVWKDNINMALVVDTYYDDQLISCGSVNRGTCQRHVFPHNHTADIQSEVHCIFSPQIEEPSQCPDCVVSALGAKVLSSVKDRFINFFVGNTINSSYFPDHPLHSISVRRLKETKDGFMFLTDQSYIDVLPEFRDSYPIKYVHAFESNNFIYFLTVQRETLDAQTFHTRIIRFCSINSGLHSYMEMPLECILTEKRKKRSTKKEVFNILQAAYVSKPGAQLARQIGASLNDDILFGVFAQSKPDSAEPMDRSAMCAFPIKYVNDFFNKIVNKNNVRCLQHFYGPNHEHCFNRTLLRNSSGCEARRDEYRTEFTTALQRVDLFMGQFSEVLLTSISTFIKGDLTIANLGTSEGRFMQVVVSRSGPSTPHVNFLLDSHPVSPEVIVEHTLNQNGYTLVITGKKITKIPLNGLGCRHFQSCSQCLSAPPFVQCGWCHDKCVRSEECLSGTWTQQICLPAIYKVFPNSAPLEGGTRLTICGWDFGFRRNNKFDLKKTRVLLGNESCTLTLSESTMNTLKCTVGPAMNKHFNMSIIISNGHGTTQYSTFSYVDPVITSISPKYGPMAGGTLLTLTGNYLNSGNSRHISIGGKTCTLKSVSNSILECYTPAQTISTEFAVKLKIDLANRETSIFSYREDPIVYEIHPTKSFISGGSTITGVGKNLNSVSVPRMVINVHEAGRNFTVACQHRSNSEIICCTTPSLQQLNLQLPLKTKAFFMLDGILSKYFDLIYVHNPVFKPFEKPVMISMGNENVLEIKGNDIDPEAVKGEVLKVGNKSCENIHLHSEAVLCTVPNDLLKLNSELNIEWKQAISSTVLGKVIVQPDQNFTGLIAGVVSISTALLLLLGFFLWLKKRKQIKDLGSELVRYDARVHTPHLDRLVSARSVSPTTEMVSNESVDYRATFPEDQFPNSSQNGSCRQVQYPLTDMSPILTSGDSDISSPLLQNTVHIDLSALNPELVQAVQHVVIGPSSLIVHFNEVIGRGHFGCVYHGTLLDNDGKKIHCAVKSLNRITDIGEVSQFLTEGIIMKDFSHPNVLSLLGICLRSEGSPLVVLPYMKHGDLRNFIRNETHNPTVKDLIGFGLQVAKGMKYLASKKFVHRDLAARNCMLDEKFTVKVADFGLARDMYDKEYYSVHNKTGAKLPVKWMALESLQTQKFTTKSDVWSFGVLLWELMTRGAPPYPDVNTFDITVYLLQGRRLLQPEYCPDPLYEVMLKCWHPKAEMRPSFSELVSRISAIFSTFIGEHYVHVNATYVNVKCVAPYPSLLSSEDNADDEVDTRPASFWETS
Calcium/calmodulin-dependent protein kinase type 1B (Homo sapiens), sequence (Q6P2M8 whole entry): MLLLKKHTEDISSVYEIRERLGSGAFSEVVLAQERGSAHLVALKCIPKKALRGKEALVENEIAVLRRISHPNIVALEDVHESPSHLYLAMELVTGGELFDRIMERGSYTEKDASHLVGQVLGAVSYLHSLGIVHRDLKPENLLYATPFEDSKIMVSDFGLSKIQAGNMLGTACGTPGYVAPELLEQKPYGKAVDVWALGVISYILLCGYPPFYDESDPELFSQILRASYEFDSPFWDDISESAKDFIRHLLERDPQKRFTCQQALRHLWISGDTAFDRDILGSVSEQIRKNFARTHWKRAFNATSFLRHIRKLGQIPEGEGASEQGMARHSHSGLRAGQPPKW
Aurora kinase C (Homo sapiens), sequence (Q9UQB9 whole entry): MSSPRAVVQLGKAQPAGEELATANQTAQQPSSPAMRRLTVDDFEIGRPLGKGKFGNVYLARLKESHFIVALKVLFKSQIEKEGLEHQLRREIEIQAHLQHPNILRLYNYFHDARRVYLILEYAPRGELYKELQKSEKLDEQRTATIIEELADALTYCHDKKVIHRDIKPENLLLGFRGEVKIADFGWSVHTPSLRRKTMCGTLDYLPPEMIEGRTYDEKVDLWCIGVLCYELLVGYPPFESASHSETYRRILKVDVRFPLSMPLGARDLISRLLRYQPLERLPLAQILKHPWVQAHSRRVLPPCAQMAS
cAMP-dependent protein kinase catalytic subunit PRKX (Homo sapiens), sequence (P51817 whole entry): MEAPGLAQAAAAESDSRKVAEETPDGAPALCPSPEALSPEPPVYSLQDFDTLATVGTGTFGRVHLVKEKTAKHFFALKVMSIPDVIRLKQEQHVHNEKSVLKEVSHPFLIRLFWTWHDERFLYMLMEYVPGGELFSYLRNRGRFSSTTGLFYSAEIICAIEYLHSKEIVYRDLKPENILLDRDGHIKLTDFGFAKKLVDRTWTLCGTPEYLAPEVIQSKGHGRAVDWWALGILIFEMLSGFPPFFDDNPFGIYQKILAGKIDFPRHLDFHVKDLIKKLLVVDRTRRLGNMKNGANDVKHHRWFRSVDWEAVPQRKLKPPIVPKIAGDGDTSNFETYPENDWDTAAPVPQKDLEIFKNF

Take `C(=C\c1ccccc1)/C[N+]12CN3CN(CN(C3)C1)C2`: the Activity in [1] was 93.6 to 94.3%; in [2], 93.1 to 93.2%; in assay [3], 80.5 to 87.2%; in assay [4] it was 94.8 to 94.9%; in assay [5], 88.4 to 93.3%; in assay [6] it was 94 to 96%. Besides, the Activity in assay [7] is 95.8 to 96.8%; in assay [8] it was 78.7 to 88%; in [9] it was 92 to 97%; in assay [10], 96.1 to 97.1%; in [11], 122%; in assay [12] it was 90.7 to 92.2%. Moreover, the Activity lay within 93.4 to 95.1% in [13]; 93.8 to 96.3% in assay [14]; 89.2 to 92.2% in assay [15]; 89.2 to 89.7% in assay [16]; 94 to 94.4% in assay [17]; 87.9 to 91.1% in [18]. Moreover, the Activity in assay [19] is 93.3 to 94.9%; in assay [20], 94.4 to 94.8%; in [21], 93.8 to 96.3%.

Regarding `ClC/C=C/C[N+]12CN3CN(CN(C3)C1)C2`, the Activity was 92.5 to 94.9% in [1]; 86.9 to 91.8% in [2]; 87.8 to 88.7% in [3]; 95.7 to 96.5% in assay [4]; 71.9 to 74.8% in [5]; 93 to 93.5% in assay [6]. The Activity in assay [7] lay within 87.2 to 91.4%; in [8] it was 84.9 to 90.2%; in assay [9] it was 93.8 to 95.3%; in assay [10], 94.7 to 95.5%; in [11] it was 117 to 118%; in assay [12], 83.3 to 87.1%. The Activity in [13] was 93.8 to 95.2%; in [14], 94 to 94.8%; in assay [15], 92 to 94.8%; in assay [16], 92.3 to 92.9%; in [17], 93.8 to 95.8%; in assay [18], 91.2 to 91.8%. For the same compound, the Activity in assay [19] lay in the range of 95.2 to 96%; in assay [20] it was 94 to 95.2%; in [21] it was 90.2 to 95.2%.
